Source: patent publication US8404711B2, “5-HT4 receptor agonist compounds for treatment of cognitive disorders” (priority 2009, dated 2013)
Entries after “also recorded” stand apart in the source; their conditions may differ. Structures can show the parent of a compound that is named as a salt.

Experiments:
[1] = system: scopolamine-induced cognitive impairment (rat Morris water maze); assay: rat Morris water maze model, scopolamine-induced cognitive impairment; format: in vivo; settings: for effect on scopolamine-induced memory impairment: 0.03 mg/kg plus scopolamine 0.5 mg/kg; for effect on ability of rats to learn platform location when administered alone: no scopolamine; for reversal of scopolamine-induced cognitive impairment with coadministered 5-HT4 antagonist: compound 0.1 mg/kg i.p. plus GR125487 1 mg/kg i.p. and scopolamine 0.5 mg/kg
Method: Adult, male Sprague-Dawley rats (body weight range 275-400 g) were handled by the investigator for approximately 5 minutes one day prior to each study. […] A clear Perspex® platform was located in a fixed position 1 cm below the surface of the water, and 34 cm from the wall of the tank. Four visual cues (A4-sized pictures of different black and white symbols) were equally spaced on the wall of the tank, just above the water surface. Black curtains were placed around the tank and white noise was generated throughout the test. Each rat was released into the water, facing the tank wall, at a designated starting point (i.e., at the north side of the tank), and allowed 60 seconds to locate the submerged platform after each placement. The escape latency (in seconds) between release of the rat into the water and its locating the platform was recorded automatically by means of a video camera (San Diego Instrument, CA) and tracking software (SMART software, San Diego Instrument, CA). […] The rats were allowed to remain on the platform for 30 seconds to observe the external visual cues and pair them with the relative position of the platform. The rats were then taken off the platform and dried gently with a paper towel before repeating the test three more times (from south, then east and finally west starting positions). After the fourth test, each rat was placed under a heating lamp for 5 minutes before being returned to its home cage. The entire procedure was repeated on days 2 and 3. Over the three days of testing, rats learned to associate the location of the submerged platform (and their only means to escape the water) with the visual cues. […] The number of crossings of the previous platform location and the time spent by the rat in each quadrant were recorded. Animals that had learned the location of the platform spent more time in the appropriate quadrant and repeatedly crossed that quadrant. By performing the probe test, false positives could be excluded from the analysis (i.e., rats that had previously located the platform via a strategy independent of the visual cues, such as swimming randomly until a leg hit the platform). No animals were excluded based on conflicting data between the three days of testing and the probe test. […] The following statistical tests were performed on the data: […] A two-way repeated-measures ANOVA, followed by a Bonferroni post-hoc test, was used to compare the mean escape latency for each of the three successive test days, with p<0.05 indicating a statistically significant difference. […] Pat. […] Pat. […] Donepezil hydrochloride was purchased from Changzhou Dahua Imp. and Exp. Corp. Ltd. […] Louis, Mo.) or Spectrum Chemical Mfg. Corp. (Gardena, Calif.). GR125487 sulfamate was purchased from Tocris (Ellisville, Mo.). […] Doses were expressed with respect to the free base weights of each compound.

human 5-HT4(d) receptor = human 5-HT4(d) receptor (Homo sapiens, UniProt Q13639); assay: cell-based
Method: HEK-293 (human embryonic kidney) cells stably-transfected with human 5-HT4(d) receptor cDNA and human APP695 cDNA (HEK293-5-HT4(d)-APP695) were grown in Dulbecco's Modified Eagles Medium (DMEM) containing D-glucose supplemented with 10% fetal bovine serum, 2 mM GlutaMax-1, and 100 units penicillin (100 μg), and 100 μg/mL streptomycin in a 5% CO2, humidified incubator at 37° C. Cells were grown under continuous selection pressure by the addition of G418 (500 ug/mL) antibiotic.
HEK293-5-HT4(d)-APP695 cells (3×10^5 cells/well) were serum-starved for 4 hr prior to incubation with agonists for 30 min (unless otherwise stated) at 37° C. The culture medium was aspirated, centrifuged to remove cellular debris and the level of sAPPα determined by Western blot. sAPPα was detected using antibody 6E10 (Signet/Covance) and a goat anti-mouse HRP-conjugated 2° antibody. Immunoreactive bands corresponding to sAPPα were visualized and quantified with ECL substrate (Pierce) and a Fluor Chem HD2 image system (Alpha Innotech). Western blot analysis of samples was conducted in duplicate.
Potency data are reported as pEC50 values, the negative decadic logarithm of the EC50 value, where EC50 is the effective concentration for a 50% maximal response. […] To determine EC50 values, data from independent experiments were fit simultaneously to a sigmoidal concentration response curve using Graph Pad Prism software (slope constrained to unity).

[2] = 0.01 mg/kg plus scopolamine 0.5 mg/kg
[3] = 0.1 mg/kg plus scopolamine 0.5 mg/kg
[4] = 1 mg/kg plus scopolamine 0.5 mg/kg

human 5-HT4(d) receptor, sequence (Q13639 1-360 isoform Q13639-3): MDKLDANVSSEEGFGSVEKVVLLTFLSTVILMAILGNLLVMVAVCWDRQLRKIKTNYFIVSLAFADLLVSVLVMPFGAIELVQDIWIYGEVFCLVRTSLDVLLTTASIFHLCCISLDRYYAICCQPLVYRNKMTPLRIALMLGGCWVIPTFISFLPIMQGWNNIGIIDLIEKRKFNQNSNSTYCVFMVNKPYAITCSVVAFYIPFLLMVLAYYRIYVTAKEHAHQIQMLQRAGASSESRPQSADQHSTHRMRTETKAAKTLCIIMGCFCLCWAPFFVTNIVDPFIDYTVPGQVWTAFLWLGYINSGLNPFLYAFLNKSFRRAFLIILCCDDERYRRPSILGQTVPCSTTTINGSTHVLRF

Row | SMILES | effect on scopolamine-induced cognitive decline when administered alone [1, 2] | effect on scopolamine-induced memory impairment [1] | effect on scopolamine-induced memory impairment, mean escape latency day 3 [1, 3] | effect on ability of rats to learn platform location when administered alone ([1]; 1 mg/kg i.p.) | effect on scopolamine-induced memory impairment, mean escape latency day 3 [1, 4] | reversal of scopolamine-induced cognitive impairment with coadministered 5-HT4 antagonist [1] | also measured
1 | CC(C)n1c(=O)c(C(=O)N[C@H]2C[C@H]3CC[C@@H](C2)N3C[C@@H](O)CN(C)S(C)(=O)=O)cc2ccccc21 [Compound 1, 1-isopropyl-2-oxo-1,2-dihydroquinoline-3-carboxylic acid {(1S,3R,5R)-8-[(R)-2-hydroxy-3-(methanesulfonyl-methyl-amino)propyl]-8-azabicyclo[3.2.1]oct-3-yl}amide] | Neither compound 1 at a dose of 0.01 mg/kg nor donepezil at a dose of 0.1 mg/kg were found to have a significant effect | attenuated the memory impairment | achieved statistical significance | had no effect | attenuated the memory impairment | abolished | effect on scopolamine-induced memory impairment, mean escape latency day 3 ([1]; 1 mg/kg plus scopolamine 0.5 mg/kg, listed as compound 1): had no effect
2 | COC(=O)N1CCC(CN2CCC(CNC(=O)c3cccc4[nH]c(C(C)C)nc34)CC2)CC1 [Compound 2, 4-(4-{[(2-isopropyl-1H-benzoimidazole-4-carbonyl)amino]methyl}-piperidin-1-ylmethyl)piperidine-1-carboxylic acid methyl ester] | Neither compound 2 at a dose of 0.01 mg/kg nor donepezil at a dose of 0.1 mg/kg were found to have a significant effect | attenuated the memory impairment | achieved statistical significance | had no effect | had no effect | abolished | effect of antagonist GR113808 on compound-evoked sAPPα release (human 5-HT4(d) receptor; 10 min 1 μM GR113808 before compound at 100 nM): completely blocked; sAPPα release, concentration dependence (human 5-HT4(d) receptor; HEK293 cells with human 5-HT4(d) receptors and human APP695): concentration-dependent increase; Emax (human 5-HT4(d) receptor; read-out: Emax (% response relative to 1 μM 5-HT)): 103%
3 | COc1[nH]c2ccc(F)cc2c1C(=O)OCC1CCN(CCNS(C)(=O)=O)CC1 [GR125487, reference compound] |  |  |  |  |  |  | effect in Morris water maze when administered alone ([1]; GR125487 1 mg/kg i.p. alone): had no effect
4 | CN1[C@@H]2C[C@@H](OC(=O)[C@H](CO)c3ccccc3)C[C@H]1[C@@H]1O[C@@H]12 [Scopolamine, scopolamine hydrochloride, reference compound] |  |  |  |  |  |  | attenuation of learning versus vehicle ([1]; 0.5 mg/kg i.p., p<0.025): statistically significant attenuation of learning
5 | COc1cc2c(cc1OC)C(=O)C(CC1CCN(Cc3ccccc3)CC1)C2 (stereo not shown) [donepezil, donepezil hydrochloride, reference compound] |  |  |  |  |  |  | effect on scopolamine-induced cognitive decline when administered alone ([1]; 0.1 mg/kg plus scopolamine 0.5 mg/kg, hydrochloride): Neither compound 1 at a dose of 0.01 mg/kg nor donepezil at a dose of 0.1 mg/kg were found to have a significant effect; also recorded: Neither compound 2 at a dose of 0.01 mg/kg nor donepezil at a dose of 0.1 mg/kg were found to have a significant effect; reversal of scopolamine-induced cognitive deficit, mean escape latency day 3 ([1]; 3 mg/kg i.p. plus scopolamine 0.5 mg/kg): statistically significant reversal; effect on ability of rats to learn platform location when administered alone ([1]; 3 mg/kg i.p.): had no effect; reversal of scopolamine-induced cognitive deficit, mean escape latency day 3 ([1]; 0.3-3 mg/kg i.p. plus scopolamine 0.5 mg/kg i.p.): dose-dependent manner
